These results are taken from US10005846B2, “Anti-transglutaminase 2 antibodies” (MEDICAL RESEARCH COUNCIL TECHNOLOGY, priority 2012, dated 2018).

The structures appear in SMILES notation.

The target in assay [1] is T1, extracellular TG2 in human HK-2 cells (Homo sapiens, UniProt P21980).
T1 construct: endogenous in cells; host or cells: HK-2 (kidney proximal tubular epithelium)
T1 sequence (P21980 1-687): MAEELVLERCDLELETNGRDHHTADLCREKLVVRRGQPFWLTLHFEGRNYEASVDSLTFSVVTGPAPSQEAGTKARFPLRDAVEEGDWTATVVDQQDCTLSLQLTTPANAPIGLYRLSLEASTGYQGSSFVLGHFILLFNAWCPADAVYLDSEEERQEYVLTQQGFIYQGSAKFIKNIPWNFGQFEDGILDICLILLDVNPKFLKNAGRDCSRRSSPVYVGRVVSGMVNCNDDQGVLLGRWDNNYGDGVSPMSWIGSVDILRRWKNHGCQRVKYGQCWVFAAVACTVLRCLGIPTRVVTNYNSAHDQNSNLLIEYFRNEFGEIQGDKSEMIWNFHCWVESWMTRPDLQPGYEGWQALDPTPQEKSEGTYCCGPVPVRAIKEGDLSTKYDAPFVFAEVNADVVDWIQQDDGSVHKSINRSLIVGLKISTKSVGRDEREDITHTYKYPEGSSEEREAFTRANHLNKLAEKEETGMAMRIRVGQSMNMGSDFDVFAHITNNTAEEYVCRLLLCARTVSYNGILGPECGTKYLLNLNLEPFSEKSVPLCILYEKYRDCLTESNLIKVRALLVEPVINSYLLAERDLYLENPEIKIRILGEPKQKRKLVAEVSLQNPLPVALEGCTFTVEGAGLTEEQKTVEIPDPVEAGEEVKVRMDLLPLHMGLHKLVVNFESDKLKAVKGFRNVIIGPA
The assay can be described thus: Extracellular TG activity in HK-2 cells, biotin cadaverine incorporation into fibronectin (Example 1). It counts as cell-based. The note with it: 400 μM of the site-specific pan TG inhibitor 1,3-Dimethyl-2-[(2-oxo-propyl)thio]imidazolium chloride. On the procedure:
HK2 cells were plated onto fibronectin and incubated for 2 hours in the presence of 0.1M biotin cadaverine with either 4 ng/μl of human anti-TG2 antibody (AB1) (part A), 4 ng/μl of human anti-TG2 antibody (DC1) (part B) or 400 μM of the site-specific pan TG inhibitor 1,3-Dimethyl-2-[(2-oxo-propyl)thio]imidazolium chloride. […] Changes in optical density were measured at 450 nm in a 96 well plate reader. Data represents mean OD at 450 nm corrected to 1 mg of cell protein. n=6 wells per experimental group.
Extracellular TG activity was measured by modified cell ELISA. HK-2 epithelial cells were harvested using 0.1M EDTA or 0.25% trypsin/EDTA and plated at a density of 8×10^4 cells/well in serum free medium onto a 96 well plate that had been coated overnight with 100 μl/well of fibronectin (5 μg/ml in 50 mM Tris-HCl pH 7.4) (Sigma, Poole UK). Cells were allowed to attach for 2.5 h at 37° C. in the presence of the 0.1 mM biotin cadaverine [N-(5 amino pentyl biotinamide) trifluoroacetic acid] (Molecular Probes, Eugene Oreg., USA). Plates were washed twice with 3 mM EDTA/PBS and cells removed with 0.1% (w/v) deoxycholate in 5 mM EDTA/PBS. The supernatant was collected and used for protein determination. […] The reaction was stopped with 50 μl 2.5 M H2SO4 and the absorbance read at 450 nm.

The next assay relates to WI-38 cells. The assay is described as follows: Scratch wound assay in WI-38 cells. It counts as cell-based, human. Conditions: serum free media; Cytochalasin D 0.1 μM, R281 100 μM, Z DON 10 μM and 100 μM, Cub7402 5 μg/ml. Here is the method: WI-38 cells (normal human lung fibroblasts ATCC cat#CCL-75) were plated in a 96 well Image Lock plate (Essen cat#4379) at 2×10^4/well in αMEM media (Life Technologies cat#32561) with 10% FBS and grown O/N to >97% confluence. Cells were washed 2× with αMEM media without serum and a scratch wound was generated using an Essen Wound Maker and the manufacturers protocol. The media was removed and replaced with 95 μl/well serum free media. Controls and test antibodies were added to the wells. The plate was placed in an Essen Incucyte and the closure of the wound was analysed using the scratch wound protocol.
Cytochalasin D was used as an assay control at 0.1 μM. R281, a small molecule non-specific transglutaminase inhibitor, was tested at 100 μM. Z DON, a peptide non reversible transglutaminase inhibitor was tested at 10 μM and 100 μM. The commercially available TG2 antibody Cub7402 (ABcam cat#ab2386) was tested at 5 μg/ml. Antibodies of the invention were tested on at least three occasions at various concentrations as indicated. In all experiments controls were Cytochalasin D at 0.1 uM and ZDON at two concentrations to show a dose dependant effect.

In the case of `CC(=O)CSc1n(C)cc[n+]1C.[Cl-]` [1,3-Dimethyl-2-[(2-oxo-propyl)thio]imidazolium chloride, reference compound], in assay [1], the “inhibition of extracellular TG activity relative to AB1 and DC1” value is recorded as “comparable”. Regarding `C=C1[C@@H](C)[C@H]2[C@H](Cc3ccccc3)NC(=O)[C@]23[C@H](OC(C)=O)/C=C/[C@@](C)(O)C(=O)[C@@H](C)C/C=C/[C@H]3[C@@H]1O` [Cytochalasin D, reference compound], the “effect on wound closure” value in the assay with WI-38 cells is “inhibited wound closure”.
